Reference: patent US6447801B1, “Anti-parasitic action of N,N-diethyl-m-toluamide (deet) and formulations that prolong its activity in the skin” (priority 1997, dated 2002)
Like-named read-outs stand apart in the source and are kept apart here.

Experiments:
[1] = Disposition of 14C-DEET and 14C-Lipodeet after skin application (skin, blood, urine, bedding radioactivity)
Method: In this series of experiments, 11.472 mg of ^14C-DEET of ^14C-Lipodeet (in 100 μl) was applied to 5 cm^2 area of the mice abdominal skin. At different time points (15 min, 30 min, 60 min, 2 hrs., 4 hrs., 24 hrs., 48 hrs. and 72 hrs.) after application, the whole area of skin where the lipodeet had been applied was collected, underlying tissue removed and the radioactivity measured in a Beckman β-counter. Samples of blood and urine were also collected at these time points from each mouse to measure the radioactivity (n=10 for each time point). […] In this study, we made observations only up to 72 hrs. […] There are two possibilities, (1) substantial quantities of both DEET and Lipodeet are absorbed systemically through the skin within 24 hrs., or (2) both the chemicals are lost in the bedding due to direct contact of the applied area to the bedding materials. The first hypothesis was tested by measuring ^14C levels in the blood and urine in these animals.

[2] = tested on: cercariae; settings: in tissue culture / in vitro, cited from earlier work

With `CCN(CC)C(=O)c1cccc(C)c1` [^14C-DEET] the urine radioactivity ([1]; 15 minutes after application) was > 5.7×10^7 cpm/ml and the “radio label in the blood” value ([1]; within 15 minutes after application) was “Significant quantity of the radio label was present in the blood”.
In the case of `CCCCCCCCCCCC(=O)N(CC)CC` [N,N-diethyl lauramide], the cercaricidal effect [2] is listed as “significant cercaricidal effect”.
For `Oc1c(Cl)cc(Cl)c(Cl)c1Cc1c(O)c(Cl)cc(Cl)c1Cl` [hexachlorophene], the cercaricidal effect [2] is given as “significant cercaricidal effects” and the cercaricidal effect ([2]; listed as hexachlorophere) is given as “significant cercaricidal effect”.
In the case of `C[C@@H]1CC[C@H]2C(C)(C)[C@H]3C[C@@]12CC[C@@]3(C)O` [Cederol], the cercaricidal effect [2] is listed as “significant cercaricidal effect”.
In the case of `O=C(OCc1ccccc1)c1ccccc1` [benzyl benzoate], the cercaricidal effect [2] is given as “significant cercaricidal effect”.
In the case of `CCCCOC(=O)c1ccccc1C(=O)OCCCC` [dibutyl phthalate], the cercaricidal effect [2] is listed as “significant cercaricidal effect”.
For `O=C(Nc1ccc([N+](=O)[O-])cc1Cl)c1cc(Cl)ccc1O` [Niclosamide], the cercaricidal effect [2] is given as “significant cercaricidal effect”.
